From patent US5354772A, “Indole analogs of mevalonolactone and derivatives thereof” (Sandoz Pharm. Corp., priority 1993, dated 1994)
Read-outs that look alike come from different tables or passages of the source.

Key:
HMG-CoA reductase = target: T1, HMG-CoA reductase (Rattus norvegicus, UniProt P51639); experiment: Test A. In Vitro Microsomal Assay of HMG-CoA Reductase Inhibition; type: biochemical; conditions: rat liver microsomes, male Sprague-Dawley rats; read-out: IC50 (50% inhibition of HMG-CoA reductase activity)
T1 construct: the microsomes are the source of the HMG-CoA reductase enzyme; from tissue; host or cells: liver microsomes, male Sprague-Dawley rats (150-225 g)
T1 sequence (P51639 1-887): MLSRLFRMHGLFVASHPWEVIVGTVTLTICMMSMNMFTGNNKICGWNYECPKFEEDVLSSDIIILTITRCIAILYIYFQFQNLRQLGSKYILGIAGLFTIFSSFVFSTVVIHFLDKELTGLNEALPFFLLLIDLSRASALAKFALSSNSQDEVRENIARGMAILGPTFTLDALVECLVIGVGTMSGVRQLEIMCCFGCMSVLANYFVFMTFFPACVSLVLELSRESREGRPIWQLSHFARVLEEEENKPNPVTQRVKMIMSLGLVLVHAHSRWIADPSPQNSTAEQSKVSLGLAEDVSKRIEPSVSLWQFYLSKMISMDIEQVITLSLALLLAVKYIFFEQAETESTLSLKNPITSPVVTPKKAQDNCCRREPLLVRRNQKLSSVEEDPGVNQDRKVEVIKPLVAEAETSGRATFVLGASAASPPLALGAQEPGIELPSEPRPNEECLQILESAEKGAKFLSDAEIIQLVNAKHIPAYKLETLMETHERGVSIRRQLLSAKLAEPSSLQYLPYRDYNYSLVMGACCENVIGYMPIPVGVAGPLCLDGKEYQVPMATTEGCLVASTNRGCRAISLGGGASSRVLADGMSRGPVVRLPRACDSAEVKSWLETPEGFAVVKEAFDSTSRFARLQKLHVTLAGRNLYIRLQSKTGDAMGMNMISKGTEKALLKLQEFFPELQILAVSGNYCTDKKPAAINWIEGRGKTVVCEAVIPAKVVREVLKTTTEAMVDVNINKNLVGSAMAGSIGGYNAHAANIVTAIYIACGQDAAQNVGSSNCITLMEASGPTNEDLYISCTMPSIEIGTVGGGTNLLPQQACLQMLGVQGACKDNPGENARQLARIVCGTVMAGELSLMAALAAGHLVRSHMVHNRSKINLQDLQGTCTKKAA
Method: Test A. In Vitro Microsomal Assay of HMG-CoA Reductase Inhibition:
200 μl. aliquots (1.08-1.50 mg./ml.) of rat liver microsomal suspensions, freshly prepared from male Sprague-Dawley rats (150-225 g. body weight), in Buffer A with 10 mmol. dithiothreitol are incubated with 10 μl. of a solution of the test substance in dimethylacetamide and assayed for HMG-CoA reductase activity as described in Ackerman et al., J. Lipid Res. 18, 408-413 (1977). In the assay the microsomes are the source of the HMG-CoA reductase enzyme which catalyzes the reduction of HMG-CoA to mevalonate. The assay employs a chloroform extraction to separate the product, [^14 C]mevalonolactone, formed by the HMG-CoA reductase reaction from the substrate, [^14 C]HMG-CoA. [^3 H]mevalonolactoneis added as an internal reference. Inhibition of HMG-CoA reductase is calculated from the decrease in specific activity [^14 C/^3 H]mevalonate) of test groups compared to controls.
IC50 is the concentration of the test substance in the assay system
calculated to produce a 50% inhibition of HMG-CoA reductase activity (Test
A) or sterol biosynthesis (Test B) .

sterol synthesis = experiment: Test C. In Vivo Cholesterol Biosynthesis Inhibition Test; parameters: species or system rat; conditions: for ED50: Rattus norvegicus, read-out: ED50 (inhibition of sterol synthesis)
Source text: Test C. In Vivo Cholesterol Biosynthesis Inhibition Test In vivo studies utilize male Wistar Royal Hart rats weighing 150±20 g. which have been kept for 7-10 days on an altered light cycle (6:30 A.M.-6:30 P.M. dark) housed two per cage and fed powdered Purina Rat Chow and water ad libitum. […] Controls receive vehicle alone. […] Two hours after mid-dark, blood samples are obtained under sodium hexobarbitol anesthesia and the serum separated by centrifugation. […] Inhibition of sterol synthesis is calculated from the reduction in the nCi of sterols formed from test groups compared to controls.

[1] = test system: Fu5AH rat hepatoma cell line; experiment: Test B. In Vitro Cell Culture Cholesterol Biosynthesis Screen; type: cell-based; conditions: Fu5AH cells, 3 hours; for IC50: [14C]acetate incorporation, read-out: IC50 (50% inhibition of sterol biosynthesis)
Method: The cell culture is prepared as follows: Stock monolayer cultures of the Fu5AH rat hepatoma cell line (originally obtained from G. Rothblat; see Rothblat, Lipids 9, 526-535 (1974)) are routinely maintained in Eagle's Minimum Essential Medium (EMEM) supplemented with 10% fetal bovine serum (FBS) in 75 cm.^2 tissue culture flasks. For these studies, when the cultures reach confluence, they are removed by mild enzymatic treatment with 0.25% trypsin in Hanks' balanced salt solution (without calcium and magnesium). After centrifugation of the cell suspension and aspiration of the enzymatic solution, the cell pellet is resuspended in an appropriate volume of media for seeding into 60 mm. tissue culture dishes. The cultures are incubated at 37° C. in an atmosphere of high humidity and 5% carbon dioxide. When the cultures are confluent (approximately 5 days), they are ready for use. The culture media is aspirated from the dishes and replaced with 3 ml. of EMEM supplemented with 5 mg./ml. of delipidized serum protein (DLSP) prepared by the method of Rothblat et al., In Vitro 12, 554-557 (1976). […] Enhanced 3-hydroxy-3-methylglutaryl Coenzyme A reductase (HMG-CoA reductase) activity is measurable in the cells in response to the lack of exogenous sterol. Following approximately 24 hours incubation at 37° C. in the DLSP supplemented media, the assay is initiated by the addition of 3 μCi of [^14 C]acetate and the test substance solubilized in dimethylsulfoxide (DMSO) or distilled water. Solvent controls and compactin-treated controls are always prepared. Triplicate 60 mm. tissue culture dishes are run for each group. After 3 hours incubation at 37° C., the cultures are examined microscopically using an inverted phase contrast microscope. Notations are made of any morphological changes which may have occurred in the cultures. The media is aspirated and the cell layer is gently washed twice with 0.9% sodium chloride solution (saline). The cell layer is then harvested in 3 ml. of 0.9% saline by gentle scraping with a rubber policeman and transferred to a clean glass tube with Teflon lined cap. The dishes are rinsed with 3 ml. of 0.9% saline and rescraped, and the cells are combined with the first harvest. The tubes are centrifuged at 1500 r.p.m. for 10 minutes in an IEC PR-J centrifuge, and the supernatant is aspirated.
The cells are then extracted as follows: One ml. of 100% ethanol is added to the cell pellet followed by sonication for 10 seconds with a "LO" setting of 50 on a Bronwell Biosonik IV. One hundred μl. are taken for protein determination. One ml. of 15% potassium hydroxide (KOH) is added, and the samples are thoroughly vortexed. Saponification is accomplished by heating the ethanol-KOH treated samples at 60° C. for 60 minutes in a water bath. Following dilution of the samples with 2 ml. of distilled water, they are extracted three times with 7 ml. of petroleum ether. The petroleum ether extracts are then washed three times with 2 ml. of distilled water and finally taken to dryness under a stream of nitrogen.
The obtained samples are then analyzed by thin layer chromatography (TLC) as follows: Residues from the petroleum ether extraction are taken up in a small volume of hexane and spotted on silica gel 60 TLC plates (E. Merck). Development of the plates is carried out in a three phase solvent system consisting of 150 parts by volume hexane: 50 parts by volume diethyl ether: 5 parts by volume glacial acetic acid.
Visualization is accomplished in an iodine vapor chamber. The plates are divided into five sections such that each section contains the molecules having the following approximate Rf values: section 1- 0-0.4, section 2- 0.4-0.55, section 3- 0.55-0.7, section 4- 0.7-0.9 and section 5- 0.9-1.0. Section 2 contains the non-saponifiable sterols. The five sections of the TLC plates are scraped into scintillation vials.

[2] = male Wistar Royal Hart rats, serum [14C] sterols

SMILES	IC50 (HMG-CoA reductase) [µM]	ED50 (sterol synthesis; [2]) [mg/kg]	IC50 [1] [µM]	also measured
Cc1cc(-c2c(/C=C/[C@H]3C[C@@H](O)CC(=O)O3)n(C(C)C)c3ccccc23)ccc1F (relative stereo) [Example 113]	0.03	0.51		
CCOC(=O)CC(O)CC(O)/C=C/c1c(-c2ccc(F)cc2)c2ccc(OCc3ccccc3)cc2n1C(C)C (stereo not drawn) [Example 75]	0.0054			
CCOC(=O)CC(O)CC(O)/C=C/c1c(-c2ccc(F)cc2)c2ccc(OCc3ccccc3)cc2n1C (stereo not drawn) [Example 21]		12.1	0.2	
CCC(C)C(=O)OC1CC(C)C=C2C=CC(C)C(CCC3CC(O)CC(=O)O3)C21 (stereo not drawn) [Mevinolin, reference compound]				ED50 (sterol synthesis): 0.41 mg/kg
Cn1c(/C=C/[C@@H]2C[C@@H](O)CC(=O)O2)c(-c2ccc(F)cc2)c2ccccc21 [Example 10, (E)-Trans-6S-[2'-[3"-(4'"-fluorophenyl)-1"-methylindol-2"-yl]ethenyl]-4R-hydroxy-3,4,5,6-tetrahydro-2H-pyran-2-one]	1.7		0.42	percentage change of sterol synthesis (sterol synthesis; at 4 mg./kg., male Wistar Royal Hart rats): -47%
Cn1c(/C=C/[C@@H]2C[C@@H](O)CC(=O)O2)c(-c2ccc(F)cc2)c2ccccc21 (relative stereo) [Example 4 (a), (E)-Trans-6-[2'-[3"-(4'"-fluorophenyl)-1"-methylindol-2"-yl]ethenyl]-4-hydroxy-3,4,5,6-tetrahydro-2H-pyran-2-one]	3	7	0.62	
CCOC(=O)CC(O)CC(O)/C=C/c1c(-c2ccc(F)cc2)c2cc(Cl)ccc2n1C (stereo not drawn) [Example 43]	9.6		0.74	
Cn1c(/C=C/[C@H](O)C[C@@H](O)CC(=O)O)c(-c2ccc(F)cc2)c2cccc(OCc3ccccc3)c21 (relative stereo) [Example 54]	464			
Cc1cc(C)cc(-c2c(/C=C/[C@@H](O)C[C@@H](O)CC(=O)O)n(C(C)C)c3ccccc23)c1 (relative stereo) [Example 14D, Sodium erythro-(±)-(E)-3,5-dihydroxy-7-[3'-(3",5"-dimethylphenyl)-1'-(1"-methylethyl)indol-2'-yl]hept-6-enoate]	0.005	0.16		
Cn1c(/C=C/C(O)CC(O)CC(=O)O)c(-c2ccc(F)cc2)c2ccc(OCc3ccccc3)cc21 (stereo not drawn) [Example 23]	0.09		0.6	
CCOC(=O)CC(O)CC(O)/C=C/c1c(-c2ccc(F)cc2)c2ccccc2n1CC (stereo not drawn) [Example 60]	0.12	0.87		
Cc1c(/C=C/[C@@H]2C[C@@H](O)CC(=O)O2)n(-c2ccccc2)c2ccccc12 (relative stereo) [Example 142]	1.3	6.1	1.5	
Cn1c(/C=C/[C@H]2C[C@@H](O)CC(=O)O2)c(-c2ccc(F)cc2)c2cccc(OCc3ccccc3)c21 (relative stereo) [Example 102]	> 1000			
CCOC(=O)CC(O)CC(O)/C=C/c1c(C)c2ccccc2n1-c1ccccc1 (stereo not drawn) [Example 132]	1.62			percentage change of sterol synthesis (sterol synthesis; at 10 mg./kg., male Wistar Royal Hart rats): -35%; inhibition at 10 µM ([1]; at 10 μmolar, read-out: percentage change (%Δ) of sterol biosynthesis): 71%
Cn1c(/C=C\[C@@H]2C[C@@H](O)CC(=O)O2)c(-c2ccc(F)cc2)c2ccccc21 [Example 12, (Z)-Trans-6S-[2'-[3"-(4'"-fluorophenyl)-1"-methylindol-2"-yl]ethenyl]-4R-hydroxy-3,4,5,6-tetrahydro-2H-pyran-2-one]	9.1			inhibition at 1 µM ([1]; at 1 μmolar, read-out: percentage change (%Δ) of sterol biosynthesis): 16%
Cn1c(CC[C@@H]2C[C@@H](O)CC(=O)O2)c(-c2ccc(F)cc2)c2ccccc21 (relative stereo) [Example 89]	9.3			
Cn1c(/C=C/C2CC(O)CC(=O)O2)c(-c2ccc(F)cc2)c2ccccc21 (stereo not drawn) [Example 3, (E)-6-[2'-[3"-(4'"-Fluorophenyl)-1"-methylindol-2"-yl]ethenyl]-4-hydroxy-3,4,5,6-tetrahydro-2H-pyran-2-one]	1.66	> 10	0.8	
COC(=O)CC(O)CC(O)/C=C/c1c(-c2ccc(F)cc2)c2ccccc2n1C (stereo not drawn) [Example 1, Methyl (E)-3,5-dihydroxy-7-[3'-(4"-fluorophenyl)-1'-methylindol-2'-yl]hept-6-enoate]	1.7	6.2	0.8	
Cc1cc(C)c2c(-c3ccc(F)cc3)c(/C=C/[C@@H](O)C[C@@H](O)CC(=O)O)n(C(C)C)c2c1 (relative stereo) [Example 64]	0.012	0.66	0.03	
CC(C)n1c(/C=C/[C@@H](O)C[C@@H](O)CC(=O)O)c(-c2ccc(F)cc2)c2ccccc21 (relative stereo) [Example 8, Sodium erythro-(±)-(E)-3,5-dihydroxy-7-[3'-(4"-fluorophenyl)-1'-(1"-methylethyl)indol-2'-yl]hept-6-enoate]			0.05	ED50 (sterol synthesis): 0.09 mg/kg
CC[C@H](C)C(=O)O[C@H]1CCC=C2C=C[C@H](C)[C@H](CC[C@@H]3C[C@@H](O)CC(=O)O3)[C@H]21 [Compactin, reference compound]	0.77	3.5	0.06	
CCn1c(/C=C/[C@H]2C[C@@H](O)CC(=O)O2)c(-c2ccc(F)cc2)c2ccccc21 (relative stereo) [Example 111]			0.19	
CC(C)n1c(/C=C/[C@H](O)C[C@@H](O)CC(=O)O)c(-c2ccc(F)cc2)c2ccccc21 (relative stereo) [Example 9, Sodium threo-(±)-(E)-3,5-dihydroxy-7-[3'-(4"-fluorophenyl)-1'-(1"-methylethyl)indol-2'-yl]hept-6-enoate]			0.22	ED50 (sterol synthesis): 1.4 mg/kg
